From publication PMC7649969, “Pyrazolyl-pyrimidones inhibit the function of human solute carrier protein SLC11A2 (hDMT1) by metal chelation” (RSC Medicinal Chemistry, 2020) come the findings set out here.

A word on the inhibition: it is the relative decrease from the control value, in per cent. For orientation: IC50 means the concentration needed to halve the response being measured.

In the experiment the target is T1, hDMT1 (SLC11A2) (Homo sapiens, UniProt P49281).
T1 construct: DsRED; expressed in transfected cells
T1 sequence (P49281 1-568): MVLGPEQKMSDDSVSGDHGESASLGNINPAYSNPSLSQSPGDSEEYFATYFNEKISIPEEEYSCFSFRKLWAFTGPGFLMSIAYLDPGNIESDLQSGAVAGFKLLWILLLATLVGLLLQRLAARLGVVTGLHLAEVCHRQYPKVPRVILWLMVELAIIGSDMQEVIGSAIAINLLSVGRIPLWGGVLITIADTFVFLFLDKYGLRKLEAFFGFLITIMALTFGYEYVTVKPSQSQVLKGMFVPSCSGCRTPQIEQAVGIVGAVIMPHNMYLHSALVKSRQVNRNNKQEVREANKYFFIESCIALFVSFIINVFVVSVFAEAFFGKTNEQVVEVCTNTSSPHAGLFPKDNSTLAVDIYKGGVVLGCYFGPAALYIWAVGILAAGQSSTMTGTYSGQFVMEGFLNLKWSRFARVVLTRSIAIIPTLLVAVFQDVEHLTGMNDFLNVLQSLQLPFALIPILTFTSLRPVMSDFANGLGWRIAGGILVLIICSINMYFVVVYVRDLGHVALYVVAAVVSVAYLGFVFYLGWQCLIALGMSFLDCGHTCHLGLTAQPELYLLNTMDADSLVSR
Briefly: radioactive iron uptake assay in HEK293 cells stably overexpressing hDMT1. The experiment is classed as cell-based. As to conditions: for inhibition at 10 µM: HEK293, 10 μM compound, radioactive iron uptake, pH 5.5; for Ligand efficiency: from IC50 of radioactive iron uptake in HEK293-hDMT1; for IC50: radioactive iron 1 μM, 15 min incubation, extracellular pH 5.5, HEK293 stably overexpressing hDMT1.

Take `Cc1cc(=O)[nH]c(-n2nc3c(c2C)CCC3)n1` [Compound 12]: the inhibition at 10 µM is less than 20%.
On to `CCc1c(C)nn(-c2nc(C)cc(=O)[nH]2)c1C` [Compound 7], for which the Ligand efficiency is 0.40 and the half-inhibitory concentration (IC50) is 4.2 ± 0.4 µM.
On to `CCc1cc(CC)n(-c2nc(C)cc(=O)[nH]2)n1` [Compound 16], for which the Ligand efficiency was determined as 0.45 and the half-maximal inhibitory concentration (IC50) came to 3.8 ± 0.2 µM.
As for `Cc1cc(=O)[nH]c(-n2[nH]c(C)c(Cc3ccccc3)c2=O)n1` [Compound 22], the inhibition at 10 µM was less than 20%.
`CCc1cc(=O)n(-c2nc(C)cc(=O)[nH]2)[nH]1` [Compound 21]: the inhibition at 10 µM was less than 20%.
For `Cc1cc(=O)[nH]c(-n2nc(C)c(Cc3ccccc3)c2C)n1` [Compound 9], the inhibition at 10 µM is less than 20%.
On to `Cc1cc(C)n(-c2nc(C)c(C)c(O)n2)n1` [Compound 19], for which the Ligand efficiency is on record as 0.43 and the IC50 was found to be 12.5 ± 0.3 µM.
`CCc1c2c(nn1-c1nc(C)cc(=O)[nH]1)CCCC2` [Compound 17]: the Ligand efficiency was found to be 0.42 and the IC50 was found to be 2.26 ± 0.3 µM.
`Cc1cc(C)nc(-n2nc(C)cc2C)n1` [Compound 20]: the inhibition at 10 µM is less than 20%.
`CCOC(=O)c1cnc(-n2[nH]c(C)cc2=O)[nH]c1=O` [Compound 25]: the inhibition at 10 µM was less than 20%.
Regarding `Cc1cc(=O)[nH]c(-n2nc(-c3ccccc3)cc2C)n1` [Compound 11], the inhibition at 10 µM was less than 20%.
As for `CCc1cc(=O)[nH]c(-n2[nH]c(C)cc2=O)n1` [Compound 24], the inhibition at 10 µM was less than 20%.
The same measure, in the same setting: in the case of `Cc1cc(=O)[nH]c(-n2nc3c(c2C)CNCC3)n1` [Compound 15] it was less than 20%.
The same measure, in the same setting: in the case of `Cc1cc(=O)[nH]c(-n2nc3c(c2C)COCC3)n1` [Compound 14] it was less than 20%.
As to `Cc1cc(=O)[nH]c(-n2nc(C)c(C)c2C)n1` [Compound 6], the Ligand efficiency is reported as 0.44 and the IC50 is 10 ± 0.4 µM.
For the molecule `Cc1cc(C)c(CSC(=N)N)c(C)c1CSC(=N)N` [Compound 2, reference compound], the Ligand efficiency stood at 0.25.
On to `Cc1cc(=O)[nH]c(-n2nc(C)c(-c3ccccc3)c2C)n1` [Compound 8], for which the inhibition at 10 µM was less than 20%.
In the case of `Cc1cc(=O)[nH]c(-n2nc(C(C)(C)C)cc2C)n1` [Compound 10], the inhibition at 10 µM is less than 20%.
Consider `Cc1cc(=O)[nH]c(-n2nc3c4c2CCCC4CCC3)n1` (stereo not shown) [Compound 18], for which the Ligand efficiency amounted to 0.42 and the 50% inhibitory concentration (IC50) came to 0.94 ± 0.2 µM.
